In ChEMBL document CHEMBL1126462, “CP-99,711: a non-peptide glucagon receptor antagonist” (Bioorg Med Chem Lett, 1992) one finds IC50 data, which are given here for one compound.

One assay deals with Glucagon receptor (Rattus norvegicus, UniProt P30082). Put plainly: Tested against glucagon receptor for its ability to displace radiolabeled ([125I]-glucagon) in […] liver.
Assay [1] is filed under the species Rattus norvegicus. Put plainly: Tested for its ability to increase cAMP production (in the absence of glucagon) in rat liver homogenates; no measurable agonist activity. The class given is functional.
The species entered for assay [2] is Rattus norvegicus. Briefly: Inhibitory concentration against glucagon receptor -stimulated cAMP production in rat liver homogenates. Format: functional.

Molecules are shown by their SMILES. Where only a bound is given, the exact number is not on record here.

Sequence of Glucagon receptor (P30082 whole entry): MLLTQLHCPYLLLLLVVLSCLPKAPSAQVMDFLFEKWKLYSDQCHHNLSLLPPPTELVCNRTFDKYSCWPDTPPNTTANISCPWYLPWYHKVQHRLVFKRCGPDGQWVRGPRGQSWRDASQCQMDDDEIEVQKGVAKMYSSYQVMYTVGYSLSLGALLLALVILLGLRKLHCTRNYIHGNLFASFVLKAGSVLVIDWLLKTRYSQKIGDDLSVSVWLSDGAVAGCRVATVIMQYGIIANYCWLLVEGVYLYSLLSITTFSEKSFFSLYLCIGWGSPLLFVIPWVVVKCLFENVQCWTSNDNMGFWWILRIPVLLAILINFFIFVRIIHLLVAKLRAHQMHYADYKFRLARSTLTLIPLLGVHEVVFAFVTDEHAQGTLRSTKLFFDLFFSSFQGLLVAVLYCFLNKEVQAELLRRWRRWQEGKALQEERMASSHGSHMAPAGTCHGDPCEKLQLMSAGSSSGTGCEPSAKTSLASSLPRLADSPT

Take `CN(C)CCCN(C)c1nc2cc(Cl)c(Cl)cc2nc1/C=C/c1ccccc1`: the IC50 on Glucagon receptor is 4 µM; in the assay listed under Rattus norvegicus [1] it was over 32 µM; in the assay filed under Rattus norvegicus [2] it was 7 µM.
